Results published in patent publication EP4603105A1, “PHARMACEUTICAL COMPOSITION CONTAINING CYCLIC COMPOUND HAVING SELECTIVE KRAS INHIBITORY EFFECT AGAINST HRAS AND NRAS” (CHUGAI SEIYAKU KABUSHIKI KAISHA, priority 2022, dated 2024).
Each block holds one compound with its values, some of them ahead of it.

Columns and labels:
[1] = biological target: GDP-bound NRAS wild-type protein (Homo sapiens, UniProt P01111); assay: Binding to NRAS by surface plasmon resonance (SPR), KD and KD ratio to KRAS; details: ratio of KD for GDP-bound NRAS wild-type protein to KD for KRAS
Sequence of GDP-bound NRAS wild-type protein (P01111 whole entry): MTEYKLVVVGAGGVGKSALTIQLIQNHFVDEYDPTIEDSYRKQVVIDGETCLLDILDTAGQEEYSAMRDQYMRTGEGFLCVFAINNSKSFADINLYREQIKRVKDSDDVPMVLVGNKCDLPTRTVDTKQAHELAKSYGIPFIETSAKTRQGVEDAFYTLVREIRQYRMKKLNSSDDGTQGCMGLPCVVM
In short: (§1)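 Single-cycle kinetics on GDP-loaded biotin-Avi RAS captured to ~100–300 RU; 75 s ascending injections, 100 µL/min, 30°C. HBS pH 7.4 + 10 mM MgCl2/10 µM GDP/4% DMSO. 1:1 fit, KD.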

[2] = test system: human lung cancer strain NCI-H441; type: cell-based
In short: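 Proliferation was scored by […] measured after the reagent was added to cultures kept at 37°C in 5% carbon dioxide.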

HRAS wild-type protein = HRAS wild-type protein (Homo sapiens, UniProt P01112); assay: Binding to HRAS by surface plasmon resonance (SPR), KD and KD ratio to KRAS; details: ratio of KD for HRAS wild-type protein to KD for KRAS
Sequence of HRAS wild-type protein (P01112 whole entry): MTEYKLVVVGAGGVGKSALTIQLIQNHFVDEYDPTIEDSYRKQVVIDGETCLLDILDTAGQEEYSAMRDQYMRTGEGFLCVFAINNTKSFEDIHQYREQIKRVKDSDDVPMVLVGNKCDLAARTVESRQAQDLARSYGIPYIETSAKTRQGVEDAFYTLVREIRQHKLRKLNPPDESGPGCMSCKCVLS
In short: as §1

IC50 [2]: 2.2 nM
SMILES: CCO[C@@H]1C[C@H]2C(=O)NC3(CC(C)(C)C3)C(=O)N(C)[C@@H](C3CCCC3)C(=O)N(C)[C@H](C(=O)N(C)C)CC(=O)N(C)[C@H]3CCCCCCc4ccc(cc4)C[C@@H](C(=O)N(C)CC(=O)N[C@@H](CCc4ccc(C(F)(F)F)c(OC)c4)C(=O)N2C1)N1CC/C=C\C[C@@H](C1=O)N(C)C(=O)CN(C)C(=O)[C@H]([C@@H](C)CC)NC3=O [PP3066]
NRAS /KRAS [1]: A (a compound having 10 or more and less than 20 is denoted as A)
HRAS /KRAS (HRAS wild-type protein): B (a compound having 3 or more and less than 10 is denoted as B)

IC50 [2]: 1.1 nM
SMILES: CC[C@H](C)[C@@H]1NC(=O)[C@@H]2CCCCCCc3ccc(cc3)C[C@@H](C(=O)N(C)CC(=O)N[C@@H](CCc3ccc(C(F)(F)F)c(OC)c3)C(=O)N3C[C@H](OC(C)C)C[C@H]3C(=O)NC3(CC(C)(C)C3)C(=O)N(C)[C@@H](C3CCCC3)C(=O)N(C)[C@H](C(=O)N(C)C)CC(=O)N2C)N2CC/C=C\C[C@@H](C2=O)N(C)C(=O)CN(C)C1=O [PP3067]
NRAS /KRAS [1]: A (a compound having 10 or more and less than 20 is denoted as A)
HRAS /KRAS (HRAS wild-type protein): B (a compound having 3 or more and less than 10 is denoted as B)

IC50 [2]: 4.5 nM
SMILES: CC[C@H](C)[C@@H]1NC(=O)[C@@H]2CCCCCCc3ccc(cc3)C[C@@H](C(=O)N(C)CC(=O)N[C@@H](CCc3ccc(C(F)(F)F)c(OC)c3)C(=O)N3C[C@H](OC4CCC4)C[C@H]3C(=O)NC3(CC(C)(C)C3)C(=O)N(C)[C@@H](C3CCCC3)C(=O)N(C)[C@H](C(=O)N(C)C)CC(=O)N2C)N2CC/C=C\C[C@@H](C2=O)N(C)C(=O)CN(C)C1=O [PP3068]
NRAS /KRAS [1]: A (a compound having 10 or more and less than 20 is denoted as A)
HRAS /KRAS (HRAS wild-type protein): B (a compound having 3 or more and less than 10 is denoted as B)

IC50 [2]: 2.6 nM
SMILES: CC[C@H](C)[C@@H]1NC(=O)[C@@H]2CCCCCc3ccc(cc3)C[C@@H](C(=O)N(C)CC(=O)N[C@@H](CCc3ccc(C(F)(F)F)c(OC)c3)C(=O)N3C[C@H](OC(C)C)C[C@H]3C(=O)NC3(CC(C)(C)C3)C(=O)N(C)[C@@H](C3CCCC3)C(=O)N(C)[C@H](C(=O)N(C)C)CC(=O)N2C)N2CC/C=C\C[C@@H](C2=O)N(C)C(=O)CN(C)C1=O [PP3072]
NRAS /KRAS [1]: A (a compound having 10 or more and less than 20 is denoted as A)
HRAS /KRAS (HRAS wild-type protein): B (a compound having 3 or more and less than 10 is denoted as B)

IC50 [2]: 1.9 nM
SMILES: CC[C@H](C)[C@@H]1NC(=O)[C@@H]2CCCCCc3ccc(cc3)C[C@@H](C(=O)N(C)CC(=O)N[C@@H](CCc3ccc(C(F)(F)F)c(OC)c3)C(=O)N3C[C@H](OC4CCC4)C[C@H]3C(=O)NC3(CC(C)(C)C3)C(=O)N(C)[C@@H](C3CCCC3)C(=O)N(C)[C@H](C(=O)N(C)C)CC(=O)N2C)N2CC/C=C\C[C@@H](C2=O)N(C)C(=O)CN(C)C1=O [PP3073]
NRAS /KRAS [1]: A (a compound having 10 or more and less than 20 is denoted as A)
HRAS /KRAS (HRAS wild-type protein): A (a compound having 10 or more and less than 20 is denoted as A)

IC50 [2]: 1.1 nM
SMILES: CCO[C@@H]1C[C@H]2C(=O)NC3(CC(C)(C)C3)C(=O)N(C)[C@@H](C3CCCC3)C(=O)N(C)[C@H](C(=O)N(C)C)CC(=O)N(C)[C@H]3CCCCCc4ccc(cc4)C[C@@H](C(=O)N(C)CC(=O)N[C@@H](CCc4ccc(C(F)(F)F)c(OC)c4)C(=O)N2C1)N1CC/C=C\C[C@@H](C1=O)N(C)C(=O)CN(C1CC1)C(=O)[C@H]([C@@H](C)CC)NC3=O [PP3075]
NRAS /KRAS [1]: A (a compound having 10 or more and less than 20 is denoted as A)
HRAS /KRAS (HRAS wild-type protein): A (a compound having 10 or more and less than 20 is denoted as A)

IC50 [2]: 0.8 nM
SMILES: CCCO[C@@H]1C[C@H]2C(=O)NC3(CC(C)(C)C3)C(=O)N(C)[C@@H](C3CCCC3)C(=O)N(C)[C@H](C(=O)N(C)C)CC(=O)N(C)[C@H]3CCCCc4ccc(cc4)C[C@@H](C(=O)N(C)CC(=O)N[C@@H](CCc4ccc(C(F)(F)F)c(OC)c4)C(=O)N2C1)N1CC/C=C\C[C@@H](C1=O)N(C)C(=O)CN(C)C(=O)[C@H]([C@@H](C)CC)NC3=O [PP3077]
NRAS /KRAS [1]: A (a compound having 10 or more and less than 20 is denoted as A)
HRAS /KRAS (HRAS wild-type protein): B (a compound having 3 or more and less than 10 is denoted as B)

Second part, the compound before the results:

SMILES: CCCO[C@@H]1C[C@H]2C(=O)NC3(CC(C)(C)C3)C(=O)N(C)[C@@H](C3CCCC3)C(=O)N(C)[C@H](C(=O)N3CCCCC3)CC(=O)N(C)[C@H]3CCCc4ccc(cc4)C[C@@H](C(=O)N(C)CC(=O)N[C@@H](CCc4ccc(C(F)(F)F)c(OC)c4)C(=O)N2C1)N1CC/C=C\C[C@@H](C1=O)N(C)C(=O)CN(C)C(=O)[C@H]([C@@H](C)CC)NC3=O [PP3064]
NRAS /KRAS [1]: B (a compound having 3 or more and less than 10 is denoted as B)
IC50 [2]: 26.9 nM
HRAS /KRAS (HRAS wild-type protein): B (a compound having 3 or more and less than 10 is denoted as B)

SMILES: CCCO[C@@H]1C[C@H]2C(=O)NC3(CC(C)(C)C3)C(=O)N(C)[C@@H](C3CCCC3)C(=O)N(C)[C@H](C(=O)N3CCCC3)CC(=O)N(C)[C@H]3CCCc4ccc(cc4)C[C@@H](C(=O)N(C)CC(=O)N[C@@H](CCc4ccc(C(F)(F)F)c(OC)c4)C(=O)N2C1)N1CC/C=C\C[C@@H](C1=O)N(C)C(=O)CN(C)C(=O)[C@H]([C@@H](C)CC)NC3=O [PP3065]
NRAS /KRAS [1]: A (a compound having 10 or more and less than 20 is denoted as A)
IC50 [2]: 27.3 nM
HRAS /KRAS (HRAS wild-type protein): B (a compound having 3 or more and less than 10 is denoted as B)

SMILES: CC[C@H](C)[C@@H]1NC(=O)[C@@H]2CCCCCCc3ccc(cc3)C[C@@H](C(=O)N(C)CC(=O)N[C@@H](CCc3ccc(C(F)(F)F)c(OC)c3)C(=O)N3CC4(CC4)C[C@H]3C(=O)NC3(CC(C)(C)C3)C(=O)N(C)[C@@H](C3CCCC3)C(=O)N(C)[C@H](C(=O)N(C)C)CC(=O)N2C)N2CC/C=C\C[C@@H](C2=O)N(C)C(=O)CN(C)C1=O [PP3069]
NRAS /KRAS [1]: A (a compound having 10 or more and less than 20 is denoted as A)
IC50 [2]: 2.1 nM
HRAS /KRAS (HRAS wild-type protein): B (a compound having 3 or more and less than 10 is denoted as B)

SMILES: CCO[C@@H]1C[C@H]2C(=O)NC3(CC(C)(C)C3)C(=O)N(C)[C@@H](C3CCCC3)C(=O)N(C)[C@H](C(=O)N(C)C)CC(=O)N(C)[C@H]3CCCCCCc4ccc(cc4)C[C@@H](C(=O)N(C)CC(=O)N[C@@H](CCc4ccc(Cl)c(Cl)c4)C(=O)N2C1)N1CC/C=C\C[C@@H](C1=O)N(C)C(=O)CN(C)C(=O)[C@H]([C@@H](C)CC)NC3=O [PP3071]
NRAS /KRAS [1]: A (a compound having 10 or more and less than 20 is denoted as A)
IC50 [2]: 6.6 nM
HRAS /KRAS (HRAS wild-type protein): B (a compound having 3 or more and less than 10 is denoted as B)

SMILES: CC[C@H](C)[C@@H]1NC(=O)[C@@H]2CCCCCc3ccc(cc3)C[C@@H](C(=O)N(C)CC(=O)N[C@@H](CCc3ccc(C(F)(F)F)c(OC)c3)C(=O)N3CC4(CC4)C[C@H]3C(=O)NC3(CC(C)(C)C3)C(=O)N(C)[C@@H](C3CCCC3)C(=O)N(C)[C@H](C(=O)N(C)C)CC(=O)N2C)N2CC/C=C\C[C@@H](C2=O)N(C)C(=O)CN(C)C1=O [PP3074]
NRAS /KRAS [1]: A (a compound having 10 or more and less than 20 is denoted as A)
IC50 [2]: 2.4 nM
HRAS /KRAS (HRAS wild-type protein): A (a compound having 10 or more and less than 20 is denoted as A)

SMILES: CCO[C@@H]1C[C@H]2C(=O)NC3(CC(C)(C)C3)C(=O)N(C)[C@@H](C3CCCC3)C(=O)N(C)[C@H](C(=O)N(C)C)CC(=O)N(C)[C@H]3CCCCCc4ccc(cc4)C[C@@H](C(=O)N(C)CC(=O)N[C@@H](CCc4ccc(Cl)c(Cl)c4)C(=O)N2C1)N1CC/C=C\C[C@@H](C1=O)N(C)C(=O)CN(C)C(=O)[C@H]([C@@H](C)CC)NC3=O [PP3076]
NRAS /KRAS [1]: AA (a compound having 20 or more is denoted as AA)
IC50 [2]: 4.1 nM
HRAS /KRAS (HRAS wild-type protein): A (a compound having 10 or more and less than 20 is denoted as A)
